The nature of the data set: Clinical Example 1: pharmacokinetic assessments. Type of data set: in vivo, human. As to conditions: plasma, noncompartmental PK analysis. The method, then:
At Visit 3 (a minimum of 3 days after Visit 2), a subset of approximately 35 subjects who qualified at Visit 2 were randomized and began PK blood draws in the clinic that occurred over 24 hours for placebo, 2%, 4%, or 6% dosages of bepotastine besilate (using a randomization ratio of 1:1:1:1). There were approximately nine subjects in each of the four treatment groups. Blood sampling for PK assessments was drawn within 90 minutes (pre-dose). Subjects were dosed and additional blood samples were collected at 10, 20, 30, and 45 minutes post-dose and at 1, 1.25, 2, 3, 4, 6, 10, and 12 hours post-dose while remaining in the clinic. Subjects returned the next day for a 24 hour post-dose PK blood draw. PK blood draws at 1, 1.25, 2, 3, 4, 6, 10, and 12 hours post-dose were within a ±1 minute window and at 24 hours post dose were within a ±60 minute window.
All subjects who qualified at Visit 2 returned to the clinic for Visit 4 following a minimum ten day washout period. At Visit 4, subjects recorded individual nasal and ocular symptoms on 0-3 unit scales prior to entering the EEC and every 30 minutes for the first two hours while in the EEC, including just prior to dosing. […] At the end of Visit 4, subjects recorded reflective nasal symptom scores, summarizing their subjective opinion of each nasal and ocular symptom score (same 0-3 unit scales), over the entire post-dosing period in the EEC. […]

Consider `O=C(O)CCCN1CCC(O[C@@H](c2ccc(Cl)cc2)c2ccccn2)CC1` [bepotastine, (+)-(S)-4-[4-[(4-chlorophenyl)(2-pyridyl)methoxy]piperidino]butyric acid], for which the “absorption from the nasal sprays” value is “absorbed quickly” and the half-life entry was “short”.
